Patent US7544694B2, “Substituted diaza-spiro-[5.5]-undecane derivatives and their use as neurokinin antagonists” (Janssen Pharmaceutica N.V., priority 2004, dated 2009)

Tests used:
Assay type in all cases: cell-based
NK1 = NK1 (Homo sapiens, UniProt P25103); assay: Signal transduction (ST), intracellular Ca++ (FLIPR), functional NK1 antagonistic activity; settings: antagonist, read-out: NK1 pIC50 (converted)
Method: (§1) This test evaluates in vitro functional NK1 antagonistic activity. For the measurements of intracellular Ca^++ concentrations the cells were grown on 96-well (black wall/transparent bottom) plates from Costar for 2 days until they reached confluence. The cells were loaded with 2 μM Fluo3 in DMEM containing 0.1% BSA and 2.5 mM probenecid for 1 h at 37° C. They were washed 3× with a Krebs buffer (140 mM NaCl, 1 mM MgCl2×6H2O, 5 mM KCl, 10 mM glucose, 5 mM HEPES; 1.25 mM CaCl2; pH 7.4) containing 2.5 mM probenecid and 0.1% BSA (Ca^++-buffer). The cells were preincubated with a concentration range of antagonists for 20 min at RT and Ca^++-signals after addition of the agonists were measured in a Fluorescence Image Plate Reader (FLIPR from Molecular Devices, Crawley, England). The peak of the Ca^++-transient was considered as the relevant signal and the mean values of corresponding wells were analysed as described below.
(§2) The sigmoidal dose response curves were analysed by computerised curve-fitting, using the GraphPad Program. The EC50-value of a compound is the effective dose showing 50% of maximal effect. For mean curves the response to the agonist with the highest potency was normalised to 100%. For antagonist responses the IC50-value was calculated using non-linear regression.
(§3) The last columns indicate—without being limited thereto—for which action the compounds might be most suitable. Of course, since for some neurokinin receptors no data was determined, it is obvious that these compounds might be attributed to another suitable use.

NK2 = biological target: T1, NK2 (Homo sapiens, UniProt P21452); assay: Signal transduction (ST), intracellular Ca++ (FLIPR), NK2; settings: antagonist, read-out: NK2 pIC50 (converted)
T1 sequence (P21452 1-398): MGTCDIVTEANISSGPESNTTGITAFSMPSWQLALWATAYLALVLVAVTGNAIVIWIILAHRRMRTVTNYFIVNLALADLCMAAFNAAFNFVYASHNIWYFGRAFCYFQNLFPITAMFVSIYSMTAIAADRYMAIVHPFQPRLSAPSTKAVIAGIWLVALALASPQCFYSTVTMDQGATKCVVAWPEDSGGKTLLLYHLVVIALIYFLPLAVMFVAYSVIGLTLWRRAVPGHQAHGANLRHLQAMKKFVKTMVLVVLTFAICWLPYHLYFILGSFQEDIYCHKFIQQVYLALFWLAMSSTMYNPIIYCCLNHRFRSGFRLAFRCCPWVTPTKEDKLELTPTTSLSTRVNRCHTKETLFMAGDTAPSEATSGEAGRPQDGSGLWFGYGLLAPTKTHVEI
Method: [The source words this procedure for another target and reports this target under the same test.] as §1, §2, §3

NK3 = biological target: T2, NK3 (Homo sapiens, UniProt P29371); assay: Signal transduction (ST), intracellular Ca++ (FLIPR), NK3; settings: antagonist, read-out: NK3 pIC50 (converted)
T2 sequence (P29371 1-465): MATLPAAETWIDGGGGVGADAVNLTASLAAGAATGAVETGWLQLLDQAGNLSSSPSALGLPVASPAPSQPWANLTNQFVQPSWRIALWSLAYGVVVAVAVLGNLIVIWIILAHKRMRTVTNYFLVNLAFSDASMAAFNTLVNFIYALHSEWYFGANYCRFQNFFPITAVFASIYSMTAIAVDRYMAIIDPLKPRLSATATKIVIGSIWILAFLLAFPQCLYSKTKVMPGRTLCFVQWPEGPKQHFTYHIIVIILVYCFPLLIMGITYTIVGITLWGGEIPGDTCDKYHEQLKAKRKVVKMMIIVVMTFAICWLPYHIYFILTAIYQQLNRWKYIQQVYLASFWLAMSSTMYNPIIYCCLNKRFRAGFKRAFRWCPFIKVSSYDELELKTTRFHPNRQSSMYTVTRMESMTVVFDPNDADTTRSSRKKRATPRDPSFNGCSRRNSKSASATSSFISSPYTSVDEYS
Method: [The source words this procedure for another target and reports this target under the same test.] as §1, §2, §3

Chain of NK1 (P25103 whole entry): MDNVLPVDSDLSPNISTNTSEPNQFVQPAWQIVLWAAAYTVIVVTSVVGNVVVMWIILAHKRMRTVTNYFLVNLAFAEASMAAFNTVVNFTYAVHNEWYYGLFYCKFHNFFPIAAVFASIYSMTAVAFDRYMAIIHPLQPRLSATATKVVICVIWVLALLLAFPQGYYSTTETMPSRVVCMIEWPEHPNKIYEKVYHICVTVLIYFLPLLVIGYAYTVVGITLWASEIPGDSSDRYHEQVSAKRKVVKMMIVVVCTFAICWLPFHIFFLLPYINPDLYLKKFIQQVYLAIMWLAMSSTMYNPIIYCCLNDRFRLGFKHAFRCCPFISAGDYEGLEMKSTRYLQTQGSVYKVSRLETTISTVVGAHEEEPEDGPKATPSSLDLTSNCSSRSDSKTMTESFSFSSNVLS

Structure (SMILES)	IC50 (NK1)	IC50 (NK2)	IC50 (NK3)
Cc1cc(=O)oc(C)c1C(=O)N1CCC2(CC1)CCN([C@H]1CCN(C(=O)c3cc(C(F)(F)F)cc(C(F)(F)F)c3)[C@H](Cc3ccccc3)C1)CC2 [Compound 47]	0.0661 µM	~10 µM	> 10 µM
O=C(c1ccccn1)N1CCC2(CC1)CCN([C@H]1CCN(C(=O)c3cc(C(F)(F)F)cc(C(F)(F)F)c3)[C@H](Cc3ccccc3)C1)CC2 [Compound 49]	0.107 µM	3.98 µM	> 10 µM
O=C(c1cccnc1)N1CCC2(CC1)CCN([C@H]1CCN(C(=O)c3cc(C(F)(F)F)cc(C(F)(F)F)c3)[C@H](Cc3ccccc3)C1)CC2 [Compound 50]	0.0776 µM	2.63 µM	> 10 µM
O=C(c1ccncc1)N1CCC2(CC1)CCN([C@H]1CCN(C(=O)c3cc(C(F)(F)F)cc(C(F)(F)F)c3)[C@H](Cc3ccccc3)C1)CC2 [Compound 51]	0.0295 µM	3.63 µM	> 10 µM
O=C(c1cnccn1)N1CCC2(CC1)CCN([C@H]1CCN(C(=O)c3cc(C(F)(F)F)cc(C(F)(F)F)c3)[C@H](Cc3ccccc3)C1)CC2 [Compound 52]	0.0603 µM	2.88 µM	> 10 µM
O=C(c1ncccc1O)N1CCC2(CC1)CCN([C@H]1CCN(C(=O)c3cc(C(F)(F)F)cc(C(F)(F)F)c3)[C@H](Cc3ccccc3)C1)CC2 [Compound 53]	0.138 µM	> 10 µM	> 10 µM
O=C(c1ccc[nH]c1=O)N1CCC2(CC1)CCN([C@H]1CCN(C(=O)c3cc(C(F)(F)F)cc(C(F)(F)F)c3)[C@H](Cc3ccccc3)C1)CC2 [Compound 55]	0.158 µM	3.98 µM	> 10 µM
O=C(c1cc(C(F)(F)F)cc(C(F)(F)F)c1)N1CC[C@@H](N2CCC3(CCN(C(=O)C45CC6CC(CC(C6)C4)C5)CC3)CC2)C[C@H]1Cc1ccccc1 [Compound 59]	0.347 µM	> 10 µM	5.89 µM
O=C(c1cc(C(F)(F)F)cc(C(F)(F)F)c1)N1CC[C@H](N2CCC3(CCN(C(=O)C45CC6CC(CC(C6)C4)C5)CC3)CC2)C[C@H]1Cc1ccccc1 [Compound 60]	0.24 µM	4.68 µM	4.68 µM
CC12CCC(C(=O)N3CCC4(CC3)CCN([C@H]3CCN(C(=O)c5cc(C(F)(F)F)cc(C(F)(F)F)c5)[C@H](Cc5ccccc5)C3)CC4)(OC1=O)C2(C)C (stereo partly drawn) [Compound 61]	0.263 µM	> 10 µM	> 10 µM
O=C(c1ccc2c(c1)OCO2)N1CCC2(CC1)CCN([C@H]1CCN(C(=O)c3cc(C(F)(F)F)cc(C(F)(F)F)c3)[C@H](Cc3ccccc3)C1)CC2 [Compound 62]	0.186 µM	> 10 µM	> 10 µM
O=C(c1ccc2c(c1)OCO2)N1CCC2(CC1)CCN([C@@H]1CCN(C(=O)c3cc(C(F)(F)F)cc(C(F)(F)F)c3)[C@H](Cc3ccccc3)C1)CC2 [Compound 63]	0.437 µM	7.94 µM	> 10 µM
O=C(c1cc2ccccc2o1)N1CCC2(CC1)CCN([C@H]1CCN(C(=O)c3cc(C(F)(F)F)cc(C(F)(F)F)c3)[C@H](Cc3ccccc3)C1)CC2 [Compound 64]	0.891 µM	> 10 µM	> 10 µM
O=C(c1cnc2ccccc2n1)N1CCC2(CC1)CCN([C@H]1CCN(C(=O)c3cc(C(F)(F)F)cc(C(F)(F)F)c3)[C@H](Cc3ccccc3)C1)CC2 [Compound 66]	0.0661 µM	3.72 µM	6.92 µM
Cc1nc2ccc(C(=O)N3CCC4(CC3)CCN([C@H]3CCN(C(=O)c5cc(C(F)(F)F)cc(C(F)(F)F)c5)[C@H](Cc5ccccc5)C3)CC4)cc2[nH]1 [Compound 67]	0.0575 µM	9.77 µM	> 10 µM
O=C(c1ccc2nonc2c1)N1CCC2(CC1)CCN([C@H]1CCN(C(=O)c3cc(C(F)(F)F)cc(C(F)(F)F)c3)[C@H](Cc3ccccc3)C1)CC2 [Compound 68]	0.295 µM	5.62 µM	> 10 µM
O=C(CC12CC3CC(CC(C3)C1)C2)N1CCC2(CC1)CCN([C@H]1CCN(C(=O)c3cc(C(F)(F)F)cc(C(F)(F)F)c3)[C@H](Cc3ccccc3)C1)CC2 [Compound 72]	0.324 µM	> 10 µM	> 10 µM
Cc1ccc(OCC(=O)N2CCC3(CC2)CCN([C@H]2CCN(C(=O)c4cc(C(F)(F)F)cc(C(F)(F)F)c4)[C@H](Cc4ccccc4)C2)CC3)c(C)c1 [Compound 74]	0.389 µM	> 10 µM	> 10 µM

Now from value to compound:

IC50 (NK1)	IC50 (NK2)	IC50 (NK3)	Structure (SMILES)
0.0794 µM	5.37 µM	> 10 µM	O=C(C1=COCCC1)N1CCC2(CC1)CCN([C@H]1CCN(C(=O)c3cc(C(F)(F)F)cc(C(F)(F)F)c3)[C@H](Cc3ccccc3)C1)CC2 [Compound 45]
0.105 µM	6.31 µM	> 10 µM	O=C(c1ccc(=O)oc1)N1CCC2(CC1)CCN([C@H]1CCN(C(=O)c3cc(C(F)(F)F)cc(C(F)(F)F)c3)[C@H](Cc3ccccc3)C1)CC2 [Compound 46]
0.219 µM	> 10 µM	> 10 µM	CN1CCC=C(C(=O)N2CCC3(CC2)CCN([C@H]2CCN(C(=O)c4cc(C(F)(F)F)cc(C(F)(F)F)c4)[C@H](Cc4ccccc4)C2)CC3)C1 [Compound 48]
0.151 µM	1.91 µM	> 10 µM	O=C(c1ccc(=O)[nH]c1)N1CCC2(CC1)CCN([C@H]1CCN(C(=O)c3cc(C(F)(F)F)cc(C(F)(F)F)c3)[C@H](Cc3ccccc3)C1)CC2 [Compound 57]
0.0646 µM	> 10 µM	> 10 µM	O=C1CCC(C(=O)N2CCC3(CC2)CCN([C@H]2CCN(C(=O)c4cc(C(F)(F)F)cc(C(F)(F)F)c4)[C@H](Cc4ccccc4)C2)CC3)=NN1 [Compound 58]
0.0646 µM	3.09 µM	6.61 µM	CC(C)(C)CC(=O)N1CCC2(CC1)CCN([C@H]1CCN(C(=O)c3cc(C(F)(F)F)cc(C(F)(F)F)c3)[C@H](Cc3ccccc3)C1)CC2 [Compound 69]
0.0813 µM	5.37 µM	> 10 µM	O=C(CC1C=CCC1)N1CCC2(CC1)CCN([C@H]1CCN(C(=O)c3cc(C(F)(F)F)cc(C(F)(F)F)c3)[C@H](Cc3ccccc3)C1)CC2 (stereo partly drawn) [Compound 70]
0.0933 µM	9.77 µM	> 10 µM	O=C(CC1CCCCC1)N1CCC2(CC1)CCN([C@H]1CCN(C(=O)c3cc(C(F)(F)F)cc(C(F)(F)F)c3)[C@H](Cc3ccccc3)C1)CC2 [Compound 71]
0.0331 µM	> 10 µM	> 10 µM	O=C(NCC(=O)N1CCC2(CC1)CCN([C@H]1CCN(C(=O)c3cc(C(F)(F)F)cc(C(F)(F)F)c3)[C@H](Cc3ccccc3)C1)CC2)c1ccco1 [Compound 73]
0.0257 µM	1.15 µM	3.98 µM	O=C(Cc1ccsc1)N1CCC2(CC1)CCN([C@H]1CCN(C(=O)c3cc(C(F)(F)F)cc(C(F)(F)F)c3)[C@H](Cc3ccccc3)C1)CC2 [Compound 76]
0.0457 µM	~8.13 µM	> 10 µM	O=C(Cn1cnnn1)N1CCC2(CC1)CCN([C@H]1CCN(C(=O)c3cc(C(F)(F)F)cc(C(F)(F)F)c3)[C@H](Cc3ccccc3)C1)CC2 [Compound 77]
0.269 µM	> 10 µM	> 10 µM	O=C(CN1CCCC1=O)N1CCC2(CC1)CCN([C@H]1CCN(C(=O)c3cc(C(F)(F)F)cc(C(F)(F)F)c3)[C@H](Cc3ccccc3)C1)CC2 [Compound 78]
0.17 µM	> 10 µM	> 10 µM	O=C(CN1CCOC1=O)N1CCC2(CC1)CCN([C@H]1CCN(C(=O)c3cc(C(F)(F)F)cc(C(F)(F)F)c3)[C@H](Cc3ccccc3)C1)CC2 [Compound 79]
